Measured values published in ChEMBL document CHEMBL3045681, “Synthesis and evaluation of new 1,2,3,4-tetrahydroisoquinoline analogs as antiglioma agents” (Med Chem Res, 2011).

Tests used:
[1] = Cytotoxicity against Rattus norvegicus Sprague-Dawley (rat) astrocytes after 4 days by cresylecth violet-staining method; type: cell-based, Astrocyte
C6 [2] = assay: Cytotoxicity against Rattus norvegicus (rat) C6 cells after 4 days by cresylecth violet-staining method; type: functional, cell-based
C6 [3] = assay: Ratio of EDL-155 EC50 to compound EC50 for Rattus norvegicus (rat) C6 cells; type: functional
[4] = Rattus norvegicus, Sprague-Dawley, Astrocyte, 96 h, read-out: EC50

| Compound | EC50 (C6 [2]; Rattus norvegicus, C6, 96 h) [µM] | EC50 [1, 4] [µM] | also measured |
| --- | --- | --- | --- |
| COc1cc2c(c(OC)c1)C(Cc1ccc(-c3ccccc3)cc1)N(C(=O)OC(C)(C)C)CC2 (stereo not drawn) | 7.54 |  | EC50 ([1]; astrocyte): Not Active |
| COc1cc2c(c(OC)c1)C(Cc1ccc(-c3ccccc3)cc1)NCC2 (stereo not drawn) | 2.31 | 8.95 |  |
| Oc1cc(O)c2c(c1)CCNC2Cc1ccc(-c2ccccc2)cc1 (stereo not drawn) | 2.09 | 11.9 |  |
| CC(C)(C)OC(=O)N1CCc2cc(O)cc(O)c2C1Cc1ccc(-c2ccccc2)cc1 (stereo not drawn) | 4.97 | 8.58 |  |
| COc1cc2c(c(OC)c1)C(Cc1ccc(Br)cc1)N(C(=O)OC(C)(C)C)CC2 (stereo not drawn) | 10.1 | 28.1 |  |
| Oc1cc(O)c2c(c1)CCNC2Cc1ccc(Br)cc1 (stereo not drawn) | 12.6 | 23.9 |  |
| CC(C)(C)OC(=O)N1CCc2cc(O)cc(O)c2C1Cc1ccc(Br)cc1 (stereo not drawn) | 7.04 | 9.97 |  |
| COc1ccccc1-c1ccc(CC2c3c(O)cc(O)cc3CCN2C(=O)OC(C)(C)C)cc1 (stereo not drawn) | 7.34 | 67.5 |  |
| COc1ccccc1-c1ccc(CC2NCCc3cc(O)cc(O)c32)cc1 (stereo not drawn) | 2.61 | 15.7 |  |
| COc1cc2c(c(OC)c1)C(Cc1ccc(-c3ccccc3OC)cc1)N(C(=O)OC(C)(C)C)CC2 (stereo not drawn) | 59.7 |  | EC50 ([1]; astrocyte): Not Active |
| Oc1cc2c(cc1O)C(Cc1ccc(-c3ccccc3)cc1)NCC2 (racemic) | 1.5 | 27.4 |  |
| COc1cc2c(c(OC)c1)C(Cc1ccc(-c3ccccc3OC)cc1)NCC2 (single isomer, unassigned; (+)) |  |  | EC50 ([1]; astrocyte, read-out: EC50): 13.1 µM; EC50 (C6 [2]; c6): 0.26 µM |
| COc1cc2c(c(OC)c1)C(Cc1ccc(-c3ccccc3OC)cc1)NCC2.Cl (stereo in doubt; 25) |  |  | Ratio EC50 (C6 [3]): 2.4; EC50 ([1]; astrocyte, read-out: EC50): 10.8 µM; EC50 (C6 [2]; c6): 0.63 µM |
| COc1cc2c(c(OC)c1)C(Cc1ccc(-c3ccccc3OC)cc1)NCC2 (stereo in doubt; (-)25) |  | 15.7 | EC50 (C6 [2]; c6): 5.39 µM |
| O=NN(CCCl)C(=O)NCCCl [CARMUSTINE] | 4.8 | 54.8 |  |
| Cn1nnc2c(C(N)=O)ncn2c1=O [TEMOZOLOMIDE] | 16.5 | 51.8 |  |
